Like-named read-outs stand apart in the source and are kept apart here.
Assays:
[1] = test system: A375 (Amelanotic Melanoma); experiment: Cell viability analysis, skin cancer A375; type: cell-based, human; settings: Homo sapiens, A-375, 72 h
[2] = test system: 786-O (Renal adenocarcinoma); experiment: Cell viability analysis, renal cancer 786-O; type: cell-based, human; settings: Homo sapiens, 786-0, 72 h, read-out: The results of antibiotic drug inhibiting cancer cell lines (cell viability analysis), 786-O
NIH: OVCAR-3 = experiment: Cell viability analysis, ovarian cancer NIH: OVCAR-3; type: cell-based, human; settings: Homo sapiens, OVCAR-3, 72 h, read-out: The results of antibiotic drug inhibiting cancer cell lines (cell viability analysis), NIH-OVCAR-3
[3] = test system: HL-60 (Acute Promyelocytic Leukemia); experiment: Cell viability analysis, leukemia HL-60; type: cell-based, human; settings: Homo sapiens, HL-60, 72 h, read-out: cell viability (survival rate), HL-60, drug 10 μM, 72 hours, WST-1, OD450 nm
[4] = test system: AGS (Gastric Adenocarcinoma); experiment: Cell viability analysis, gastric cancer AGS; type: cell-based, human; settings: Homo sapiens, 72 h
U-2OS = experiment: Cell viability analysis, osteosarcoma U-2OS; type: cell-based, human; settings: Homo sapiens, U2OS, 72 h, read-out: The results of antibiotic drug inhibiting cancer cell lines (cell viability analysis), U2OS
[5] = test system: LoVo (Colorectal Adenocarcinoma); experiment: Cell viability analysis, colon cancer LoVo; type: cell-based, human; settings: Homo sapiens, LoVo, 72 h
[6] = test system: Hep3B (hepatocellular carcinoma); experiment: Cell viability analysis, hepatic cancer Hep3B; type: cell-based, human; settings: Homo sapiens, Hep3B, 72 h, read-out: The results of antibiotic drug inhibiting cancer cell lines (cell viability analysis), Hep3B
[7] = test system: HI650 (Lung Adenocarcinoma); experiment: Cell viability analysis, lung cancer HI650; type: cell-based, human; settings: Homo sapiens, NCI-H1650, 72 h
[8] = test system: HeLa (Cervix Adenocarcinoma); experiment: Cell viability analysis, cervical cancer HeLa; type: cell-based, human; settings: Homo sapiens, HeLa, 72 h
[9] = test system: A549 (Lung Adenocarcinoma); experiment: Cell viability analysis, lung cancer A549; type: cell-based, human; settings: Homo sapiens, A549, 72 h
[10] = test system: HCT116 (p53+) (Colorectal Carcinoma)
cancer cell lines = experiment: Cell viability analysis (WST-1) on cancer cell lines; type: cell-based, human; settings: drug 10 μM, 72 hours, WST-1; Table 3
[11] = test system: BCC (basal cell carcinoma); experiment: Cell viability analysis, skin cancer BCC; type: cell-based, human; settings: Homo sapiens, 72 h, read-out: The results of antibiotic drug inhibiting cancer cell lines (cell viability analysis), BCC
[12] = test system: SAS (Tongue squamous cell carcinoma); experiment: Cell viability analysis, tongue cancer SAS; type: cell-based, human; settings: Homo sapiens, 72 h, read-out: The results of antibiotic drug inhibiting cancer cell lines (cell viability analysis), SAS
T24 = experiment: Cell viability analysis, bladder cancer T24; type: cell-based, human; settings: Homo sapiens, T-24, 72 h, read-out: The results of antibiotic drug inhibiting cancer cell lines (cell viability analysis), T24
[13] = test system: MDA-MB-231 (Mammary Gland, Adenocarcinoma); experiment: Cell viability analysis, breast cancer MDA-MB-231; type: cell-based, human; settings: Homo sapiens, MDA-MB-231, 72 h, read-out: The results of antibiotic drug inhibiting cancer cell lines (cell viability analysis), MDA-MB231
[14] = test system: MKN-45 (Gastric Adenocarcinoma); experiment: Cell viability analysis, gastric cancer MKN-45; type: cell-based, human; settings: Homo sapiens, MKN-45, 72 h
[15] = test system: C-33A (Cervical carcinoma); experiment: Cell viability analysis, cervical cancer C-33A; type: cell-based, human; settings: Homo sapiens, C-33-A, 72 h, read-out: The results of antibiotic drug inhibiting cancer cell lines (cell viability analysis), C-33A
AsPC-1 = experiment: Cell viability analysis, pancreatic cancer AsPC-1; type: cell-based, human; settings: Homo sapiens, ASPC1, 72 h, read-out: The results of antibiotic drug inhibiting cancer cell lines (cell viability analysis), AsPC-1
BxPC-3 = experiment: Cell viability analysis, pancreatic cancer BxPC-3; type: cell-based, human; settings: Homo sapiens, BXPC-3, 72 h, read-out: The results of antibiotic drug inhibiting cancer cell lines (cell viability analysis), BxPC-3
[16] = test system: HepG2 (Hepatocellular Carcinoma); experiment: Cell viability analysis, hepatic cancer HepG2; type: cell-based, human; settings: Homo sapiens, HepG2, 72 h
TOV-21G = experiment: Cell viability analysis, ovarian cancer TOV-21G; type: cell-based, human; settings: Homo sapiens, TOV21G, 72 h, read-out: The results of antibiotic drug inhibiting cancer cell lines (cell viability analysis), TOV-21G
[17] = test system: MCF7 (Mammary Gland, Adenocarcinoma); experiment: Cell viability analysis, breast cancer MCF7; type: cell-based, human; settings: Homo sapiens, MCF7, 72 h
[18] = test system: PC3 (p53−) (Prostate Adenocarcinoma); experiment: Cell viability analysis, prostate cancer PC3; type: cell-based, human; settings: Homo sapiens, 72 h
[19] = read-out: The results of antibiotic drug inhibiting cancer cell lines (cell viability analysis), A375, A375, repeated experiment
[20] = read-out: cell viability (survival rate), A375, drug 10 μM, 72 hours, WST-1, OD450 nm
[21] = read-out: The results of antibiotic drug inhibiting cancer cell lines (cell viability analysis), AGS, repeated experiment
[22] = read-out: cell viability (survival rate), AGS, drug 10 μM, 72 hours, WST-1, OD450 nm
[23] = read-out: The results of antibiotic drug inhibiting cancer cell lines (cell viability analysis), LoVo, repeated experiment
[24] = read-out: cell viability (survival rate), LoVo, drug 10 μM, 72 hours, WST-1, OD450 nm
[25] = read-out: The results of antibiotic drug inhibiting cancer cell lines (cell viability analysis), H1650, H1650, repeated experiment
[26] = read-out: cell viability (survival rate), H1650, drug 10 μM, 72 hours, WST-1, OD450 nm
[27] = read-out: The results of antibiotic drug inhibiting cancer cell lines (cell viability analysis), HeLa, repeated experiment
[28] = read-out: cell viability (survival rate), HeLa, drug 10 μM, 72 hours, WST-1, OD450 nm
[29] = read-out: The results of antibiotic drug inhibiting cancer cell lines (cell viability analysis), A549, A549, repeated experiment
[30] = read-out: cell viability (survival rate), A549, drug 10 μM, 72 hours, WST-1, OD450 nm
[31] = read-out: The results of antibiotic drug inhibiting cancer cell lines (cell viability analysis), MKN-45, MKN-45, repeated experiment
[32] = read-out: cell viability (survival rate), MKN-45, drug 10 μM, 72 hours, WST-1, OD450 nm
[33] = read-out: The results of antibiotic drug inhibiting cancer cell lines (cell viability analysis), HepG2, HepG2, repeated experiment
[34] = read-out: cell viability (survival rate), HepG2, drug 10 μM, 72 hours, WST-1, OD450 nm
[35] = read-out: The results of antibiotic drug inhibiting cancer cell lines (cell viability analysis), MCF-7, MCF-7, repeated experiment
[36] = read-out: cell viability (survival rate), MCF7, drug 10 μM, 72 hours, WST-1, OD450 nm
[37] = read-out: The results of antibiotic drug inhibiting cancer cell lines (cell viability analysis), PC-3, PC-3, repeated experiment
[38] = read-out: cell viability (survival rate), PC3, drug 10 μM, 72 hours, WST-1, OD450 nm

## Clc1ccc(C(Cn2ccnc2)OCc2ccsc2Cl)c(Cl)c1 (stereo not shown) [Tioconazole]
[1]; [19]
  viability at 10 µM: 97.8%
[1]; [20]
  viability at 10 µM: 60.9%
[2]
  viability at 10 µM: 75.6%
NIH: OVCAR-3
  viability at 10 µM: 92.5%
[3]
  viability at 10 µM: 57.1%
[4]; [21]
  viability at 10 µM: 120%
[4]; [22]
  viability at 10 µM: 82.7%
U-2OS
  viability at 10 µM: 92.4%
[5]; [23]
  viability at 10 µM: 99.8%
[5]; [24]
  viability at 10 µM: 83.2%
[6]
  viability at 10 µM: 120%
[7]; [25]
  viability at 10 µM: 90.3%
[7]; [26]
  viability at 10 µM: 72.9%
[8]; [27]
  viability at 10 µM: 96.9%
[8]; [28]
  viability at 10 µM: 58.5%
[9]; [29]
  viability at 10 µM: 100%
[9]; [30]
  viability at 10 µM: 47.6%
[10]
  viability: 103%
Cancer cell lines
  inhibition effect on different cancer cell lines: significant inhibition effect
[11]
  viability at 10 µM: 87.8%
[12]
  viability at 10 µM: 93.6%
T24
  viability at 10 µM: 88.8%
[13]
  viability at 10 µM: 103%
[14]; [31]
  viability at 10 µM: 99.9%
[14]; [32]
  viability at 10 µM: 61%
[15]
  viability at 10 µM: 114%
AsPC-1
  viability at 10 µM: 80.1%
BxPC-3
  viability at 10 µM: 69.2%
[16]; [33]
  viability at 10 µM: 109%
[16]; [34]
  viability at 10 µM: 100%
TOV-21G
  viability at 10 µM: 78.5%
[17]; [35]
  viability at 10 µM: 97.8%
[17]; [36]
  viability at 10 µM: 48%
[18]; [37]
  viability at 10 µM: 104%
[18]; [38]
  viability at 10 µM: 40.7%

## CC(NC(C)(C)C)C(=O)c1cccc(Cl)c1 (stereo not shown) [Amfebutamone (Bupropion), Amfebutamone]
[1]; [19]
  viability at 10 µM: 88.4%
[1]; [20]
  viability at 10 µM: 88.2%
[2]
  viability at 10 µM: 103%
NIH: OVCAR-3
  viability at 10 µM: 109%
[3]
  viability at 10 µM: 118%
[4]; [21]
  viability at 10 µM: 117%
[4]; [22]
  viability at 10 µM: 30%
U-2OS
  viability at 10 µM: 92.3%
[5]; [23]
  viability at 10 µM: 115%
[5]; [24]
  viability at 10 µM: 51.4%
[6]
  viability at 10 µM: 82.1%
[7]; [25]
  viability at 10 µM: 96%
[7]; [26]
  viability at 10 µM: 74.3%
[8]; [27]
  viability at 10 µM: 84.5%
[8]; [28]
  viability at 10 µM: 53.4%
[9]; [29]
  viability at 10 µM: 69.1%
[9]; [30]
  viability at 10 µM: 59.2%
[10]
  viability: 78.3%
Cancer cell lines
  inhibition effect on different cancer cell lines: significant inhibition effect
[11]
  viability at 10 µM: 77.5%
[12]
  viability at 10 µM: 110%
T24
  viability at 10 µM: 99.6%
[13]
  viability at 10 µM: 80.3%
[14]; [31]
  viability at 10 µM: 103%
[14]; [32]
  viability at 10 µM: 52.1%
[15]
  viability at 10 µM: 107%
AsPC-1
  viability at 10 µM: 84.3%
BxPC-3
  viability at 10 µM: 79.6%
[16]; [33]
  viability at 10 µM: 92.3%
[16]; [34]
  viability at 10 µM: 85.1%
TOV-21G
  viability at 10 µM: 97.5%
[17]; [35]
  viability at 10 µM: 69%
[17]; [36]
  viability at 10 µM: 64.7%
[18]; [37]
  viability at 10 µM: 87.9%
[18]; [38]
  viability at 10 µM: 62.8%

From patent US10105357B2, “Indication of antibiotic drugs for preparation of cancer inhibition pharmaceutical composition” (LAUNX BIOMEDICAL CO., LTD., priority 2014, dated 2018)
